Values belong to the compound of their own block, whether it stands above or below them.
Legend:
[1] = test system: Tyrosine-protein kinase ABL1 (Homo sapiens), P00519 [H396P]; experiment: Selectivity interaction (KinomeScan (DiscoverX)) EUB0000655a ABL1; conditions: at 10 µM
[2] = target: Calcium/calmodulin-dependent protein kinase type II subunit gamma (Homo sapiens) (UniProt Q13555); experiment: Selectivity interaction (ActivX KiNativ screen (ex vivo kinase selectivity in human PBMCs)) EUB0001619a CAMK2G; format: cell-based; conditions: PBMC, at 1 µM
[3] = target: T1, Ankyrin repeat and protein kinase domain-containing protein 1 (Homo sapiens) (UniProt Q8NFD2); conditions: at 10 µM
T1 sequence (whole entry): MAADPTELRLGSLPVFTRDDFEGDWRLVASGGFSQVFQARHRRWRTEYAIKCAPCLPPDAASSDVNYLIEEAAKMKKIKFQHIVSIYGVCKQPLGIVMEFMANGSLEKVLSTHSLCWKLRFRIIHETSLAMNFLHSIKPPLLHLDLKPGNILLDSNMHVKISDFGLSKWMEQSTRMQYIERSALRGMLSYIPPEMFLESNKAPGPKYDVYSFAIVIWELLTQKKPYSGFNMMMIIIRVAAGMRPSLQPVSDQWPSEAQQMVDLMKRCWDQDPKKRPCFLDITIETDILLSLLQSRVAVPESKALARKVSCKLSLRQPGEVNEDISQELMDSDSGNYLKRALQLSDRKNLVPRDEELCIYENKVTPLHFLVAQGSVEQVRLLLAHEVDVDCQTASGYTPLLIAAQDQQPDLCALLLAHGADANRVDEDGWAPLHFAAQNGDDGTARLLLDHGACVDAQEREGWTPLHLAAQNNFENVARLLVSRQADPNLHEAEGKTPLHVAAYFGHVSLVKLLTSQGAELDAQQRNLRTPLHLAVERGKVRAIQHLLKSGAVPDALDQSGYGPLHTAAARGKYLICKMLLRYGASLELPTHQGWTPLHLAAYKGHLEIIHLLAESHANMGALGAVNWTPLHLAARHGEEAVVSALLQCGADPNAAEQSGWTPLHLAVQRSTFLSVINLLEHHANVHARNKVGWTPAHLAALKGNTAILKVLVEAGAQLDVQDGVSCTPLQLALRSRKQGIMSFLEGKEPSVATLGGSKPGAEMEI

Ephrin type-A receptor 4 = Ephrin type-A receptor 4 (Homo sapiens, UniProt P54764); experiment: Selectivity interaction (Upstate Kinase Profiler service (Millipore)) EUB0000056c EPHA4; conditions: at 1 µM
[4] = target: T2, Mitogen-activated protein kinase kinase kinase 3 (Homo sapiens) (UniProt Q99759); conditions: at 10 µM
T2 sequence (whole entry): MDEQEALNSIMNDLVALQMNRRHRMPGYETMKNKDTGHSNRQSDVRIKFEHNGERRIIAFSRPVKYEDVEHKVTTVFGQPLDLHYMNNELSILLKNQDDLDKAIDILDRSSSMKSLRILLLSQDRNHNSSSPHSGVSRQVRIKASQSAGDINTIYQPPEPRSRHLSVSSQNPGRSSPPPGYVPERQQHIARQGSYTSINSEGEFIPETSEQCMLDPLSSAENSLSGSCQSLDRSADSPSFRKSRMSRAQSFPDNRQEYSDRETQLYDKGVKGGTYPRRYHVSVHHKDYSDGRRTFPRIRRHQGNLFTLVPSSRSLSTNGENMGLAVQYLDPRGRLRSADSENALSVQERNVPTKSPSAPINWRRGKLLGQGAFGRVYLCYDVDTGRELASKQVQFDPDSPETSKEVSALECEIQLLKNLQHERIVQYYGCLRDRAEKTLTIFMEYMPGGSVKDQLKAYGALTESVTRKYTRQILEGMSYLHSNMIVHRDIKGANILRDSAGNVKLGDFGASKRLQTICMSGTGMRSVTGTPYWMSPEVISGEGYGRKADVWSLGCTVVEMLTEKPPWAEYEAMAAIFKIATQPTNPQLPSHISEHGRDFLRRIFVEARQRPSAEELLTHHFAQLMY

[5] = target: Tyrosine-protein kinase Lyn (Homo sapiens, UniProt P07948); experiment: Selectivity interaction (ActivX KiNativ screen (kinase selectivity in THP-1 cell lysates)) EUB0000639a LYN; format: subcellular; conditions: lysate, at 0.01 µM
[6] = target: T3, Protein kinase C epsilon type (Homo sapiens) (UniProt Q02156); experiment: Selectivity interaction (Kinase panel (Invitrogen)) EUB0000639a PRKCE; conditions: at 200 nM
T3 sequence (whole entry): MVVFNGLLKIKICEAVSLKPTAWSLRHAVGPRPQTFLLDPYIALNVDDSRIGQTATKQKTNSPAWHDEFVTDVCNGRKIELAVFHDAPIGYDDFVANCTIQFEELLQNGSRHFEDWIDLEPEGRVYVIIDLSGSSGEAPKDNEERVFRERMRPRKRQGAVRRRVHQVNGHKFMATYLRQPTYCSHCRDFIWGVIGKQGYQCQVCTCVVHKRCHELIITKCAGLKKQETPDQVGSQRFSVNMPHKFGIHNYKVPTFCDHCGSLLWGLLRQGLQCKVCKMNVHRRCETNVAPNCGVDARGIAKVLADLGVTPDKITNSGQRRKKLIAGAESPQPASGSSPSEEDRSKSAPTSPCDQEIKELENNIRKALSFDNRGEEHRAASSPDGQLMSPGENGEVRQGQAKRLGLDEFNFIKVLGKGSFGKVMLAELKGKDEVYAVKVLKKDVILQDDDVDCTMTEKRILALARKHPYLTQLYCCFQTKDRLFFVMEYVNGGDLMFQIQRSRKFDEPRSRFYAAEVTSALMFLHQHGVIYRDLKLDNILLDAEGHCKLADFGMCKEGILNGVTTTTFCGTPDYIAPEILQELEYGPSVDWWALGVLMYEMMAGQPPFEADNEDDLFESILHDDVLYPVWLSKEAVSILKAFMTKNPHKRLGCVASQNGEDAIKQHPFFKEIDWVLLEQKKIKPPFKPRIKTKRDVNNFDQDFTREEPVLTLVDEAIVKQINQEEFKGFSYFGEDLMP

[7] = target: Mitogen-activated protein kinase kinase kinase kinase 4 (Homo sapiens, UniProt O95819); experiment: Selectivity interaction (KinomeScan (DiscoverX)) EUB0000666a MAP4K4; conditions: at 10 µM
Mitogen-activated protein kinase kinase kinase kinase 4, sequence (O95819 2-1239 limits assumed): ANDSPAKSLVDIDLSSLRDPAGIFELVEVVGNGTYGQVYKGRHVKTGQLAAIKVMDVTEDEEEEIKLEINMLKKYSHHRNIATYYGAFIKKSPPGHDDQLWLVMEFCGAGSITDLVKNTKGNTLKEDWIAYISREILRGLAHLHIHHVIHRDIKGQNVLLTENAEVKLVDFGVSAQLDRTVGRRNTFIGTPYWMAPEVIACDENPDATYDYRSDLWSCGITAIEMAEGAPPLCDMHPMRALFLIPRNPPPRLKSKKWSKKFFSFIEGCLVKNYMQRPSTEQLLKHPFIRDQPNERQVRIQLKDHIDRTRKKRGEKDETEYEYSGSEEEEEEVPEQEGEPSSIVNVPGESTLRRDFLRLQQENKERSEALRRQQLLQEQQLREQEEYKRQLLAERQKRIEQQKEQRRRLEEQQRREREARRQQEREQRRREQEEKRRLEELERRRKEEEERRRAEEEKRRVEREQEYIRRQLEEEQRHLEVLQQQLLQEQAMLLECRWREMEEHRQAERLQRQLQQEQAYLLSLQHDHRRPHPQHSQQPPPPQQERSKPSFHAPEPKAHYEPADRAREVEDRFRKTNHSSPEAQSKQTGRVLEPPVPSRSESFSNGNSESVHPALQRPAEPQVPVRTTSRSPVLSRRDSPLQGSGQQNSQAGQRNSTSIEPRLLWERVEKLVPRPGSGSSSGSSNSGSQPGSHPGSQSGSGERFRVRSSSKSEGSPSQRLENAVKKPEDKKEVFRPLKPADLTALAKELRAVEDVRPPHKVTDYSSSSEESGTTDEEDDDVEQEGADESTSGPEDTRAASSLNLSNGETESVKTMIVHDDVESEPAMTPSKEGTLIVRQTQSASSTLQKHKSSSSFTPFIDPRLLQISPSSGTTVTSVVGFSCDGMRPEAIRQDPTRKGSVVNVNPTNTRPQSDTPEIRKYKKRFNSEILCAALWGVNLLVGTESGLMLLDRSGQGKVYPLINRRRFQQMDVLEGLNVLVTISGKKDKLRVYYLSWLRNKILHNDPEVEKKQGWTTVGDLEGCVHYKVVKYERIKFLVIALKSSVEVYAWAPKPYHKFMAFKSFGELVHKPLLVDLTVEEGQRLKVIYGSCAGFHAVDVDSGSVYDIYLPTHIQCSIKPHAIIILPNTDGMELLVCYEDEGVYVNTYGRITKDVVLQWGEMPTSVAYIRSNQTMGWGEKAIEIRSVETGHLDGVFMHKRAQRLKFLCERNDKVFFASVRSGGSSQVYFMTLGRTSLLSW

Calcium/calmodulin-dependent protein kinase type II subunit gamma (Homo sapiens), sequence (Q13555 whole entry, the tested form may be a part): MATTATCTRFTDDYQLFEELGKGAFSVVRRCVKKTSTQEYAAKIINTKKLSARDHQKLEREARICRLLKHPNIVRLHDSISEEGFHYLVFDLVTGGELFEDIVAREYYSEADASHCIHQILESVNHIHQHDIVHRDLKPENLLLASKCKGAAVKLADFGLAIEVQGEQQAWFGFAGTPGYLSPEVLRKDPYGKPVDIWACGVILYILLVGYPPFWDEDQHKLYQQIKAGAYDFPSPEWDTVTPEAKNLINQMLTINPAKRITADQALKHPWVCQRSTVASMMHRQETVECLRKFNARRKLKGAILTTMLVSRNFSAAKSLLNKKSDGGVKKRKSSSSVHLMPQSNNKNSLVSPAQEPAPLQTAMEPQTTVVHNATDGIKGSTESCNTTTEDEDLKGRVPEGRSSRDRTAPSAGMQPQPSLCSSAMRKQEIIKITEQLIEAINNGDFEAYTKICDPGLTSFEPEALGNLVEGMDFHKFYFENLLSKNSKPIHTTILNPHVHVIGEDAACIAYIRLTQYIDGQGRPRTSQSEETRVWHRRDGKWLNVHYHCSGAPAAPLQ
Tyrosine-protein kinase Lyn, sequence (P07948 2-512 limits assumed): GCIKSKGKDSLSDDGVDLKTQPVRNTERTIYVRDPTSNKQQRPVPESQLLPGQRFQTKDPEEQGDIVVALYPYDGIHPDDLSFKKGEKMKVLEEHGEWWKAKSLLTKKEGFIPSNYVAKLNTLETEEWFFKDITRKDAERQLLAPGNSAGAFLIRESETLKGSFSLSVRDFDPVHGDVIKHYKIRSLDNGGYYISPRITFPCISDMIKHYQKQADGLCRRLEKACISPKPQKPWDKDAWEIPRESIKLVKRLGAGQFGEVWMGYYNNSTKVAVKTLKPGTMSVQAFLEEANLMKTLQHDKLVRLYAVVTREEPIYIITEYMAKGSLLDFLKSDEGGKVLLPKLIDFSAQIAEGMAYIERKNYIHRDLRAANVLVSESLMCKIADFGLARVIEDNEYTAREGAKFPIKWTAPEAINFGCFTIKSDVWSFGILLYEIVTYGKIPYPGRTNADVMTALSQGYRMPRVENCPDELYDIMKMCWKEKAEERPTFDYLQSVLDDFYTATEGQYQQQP
Ephrin type-A receptor 4, sequence (P54764 whole entry): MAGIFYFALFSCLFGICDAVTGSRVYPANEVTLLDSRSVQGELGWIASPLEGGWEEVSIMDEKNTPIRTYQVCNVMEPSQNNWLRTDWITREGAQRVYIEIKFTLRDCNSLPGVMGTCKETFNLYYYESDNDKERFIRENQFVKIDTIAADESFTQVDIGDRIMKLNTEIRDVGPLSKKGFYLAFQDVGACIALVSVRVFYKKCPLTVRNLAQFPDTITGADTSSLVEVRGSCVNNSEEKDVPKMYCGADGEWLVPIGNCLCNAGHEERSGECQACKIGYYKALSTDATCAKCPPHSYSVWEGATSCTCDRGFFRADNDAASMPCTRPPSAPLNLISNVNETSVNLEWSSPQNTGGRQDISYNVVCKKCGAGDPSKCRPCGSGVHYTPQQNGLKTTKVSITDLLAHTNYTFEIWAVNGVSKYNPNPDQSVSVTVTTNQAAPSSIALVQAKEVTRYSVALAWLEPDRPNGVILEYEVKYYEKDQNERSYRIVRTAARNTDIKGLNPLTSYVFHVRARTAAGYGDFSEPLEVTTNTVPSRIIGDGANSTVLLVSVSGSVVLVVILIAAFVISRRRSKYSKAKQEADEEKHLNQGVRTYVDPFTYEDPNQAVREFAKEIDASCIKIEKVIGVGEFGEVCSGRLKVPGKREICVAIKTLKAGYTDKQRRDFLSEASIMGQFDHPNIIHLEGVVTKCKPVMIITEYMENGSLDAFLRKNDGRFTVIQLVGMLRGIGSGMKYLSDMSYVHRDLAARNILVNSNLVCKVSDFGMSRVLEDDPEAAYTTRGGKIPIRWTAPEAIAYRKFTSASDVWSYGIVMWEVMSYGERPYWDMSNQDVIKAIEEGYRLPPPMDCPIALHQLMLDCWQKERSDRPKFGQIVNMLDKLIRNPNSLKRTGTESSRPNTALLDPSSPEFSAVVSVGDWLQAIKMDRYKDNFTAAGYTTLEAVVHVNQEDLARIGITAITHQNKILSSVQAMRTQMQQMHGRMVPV

Structure (SMILES): CN(C)CCOc1ccc(-c2nc(-c3ccncc3)c(-c3ccc4c(c3)CC/C4=N\O)[nH]2)cc1
- % of control [1]: 6.9%

Structure (SMILES): N#Cc1cccc(-c2c[nH]c3ncnc(N4CCOCC4)c23)c1
- % of inhibition [2]: 3%

Structure (SMILES): COCC(=O)NC/C=C/c1ccc2ncnc(Nc3ccc(Oc4ccc(C)nc4)c(C)c3)c2c1 [CP-724714]
- % of control [3]: 60%

- % of inhibition (Ephrin type-A receptor 4): 7%
Structure (SMILES): Cc1ccc(-c2ccc3c(ccc4sc5c(c43)NC[C@@H](C)NC5=O)n2)cn1

Structure (SMILES): Cc1cc([C@@H](C)Nc2ccccc2C(=O)O)c2nc(N3CCOCC3)cc(=O)n2c1 [AZD-6482]
- % of control [4]: 87%

- % of inhibition [5]: 5.3%
- % of inhibition [6]: -12.5%
Structure (SMILES): CC[C@@H]1[C@H](F)C(=O)N[C@@H]1COc1nccc2cc(C(N)=O)c(OC)cc12 [ZIMLOVISERTIB]

Structure (SMILES): O=C(NOC[C@H](O)CO)c1ccc(F)c(F)c1Nc1ccc(I)cc1F
- % of control [7]: 69%
